This note sets out measurements from PubChem BioAssay AID192 (DTP/NCI, 2004).

“And” between values parts separate entries of the source, which are not always exact repeats. Equal values may be shown once. Toxic doses and inconclusive results are not listed.

The test system of the assay is BDF1 mice, B16 melanoma ip, median survival T/C. Description: NCI In Vivo Anticancer Drug Screen. Data for tumor model B16 Melanoma (intraperitoneal) in B6D2F1 (BDF1) mice. The note with it: endpoint: median survival time, higher = longer survival. Summed up:
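In this screen, activity was judged from survival or tumor size in treated versus vehicle-treated tumor-bearing mice, reported as T/C.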

Where [1] appears, read: dose: 12.5 mg/kg/injection, schedule: Q01DX009 (ip), vehicle: Klucel (hydroxypropylcellulose) (HPC).
Where [2] appears, read: dose: 25.0 mg/kg/injection, schedule: Q01DX009 (ip), vehicle: Klucel (hydroxypropylcellulose) (HPC).
[3] abbreviates: dose: 50.0 mg/kg/injection, schedule: Q01DX009 (ip), vehicle: Klucel (hydroxypropylcellulose) (HPC).
Where [4] appears, read: dose: 6.25 mg/kg/injection, schedule: Q01DX009 (ip), vehicle: Klucel (hydroxypropylcellulose) (HPC).
[5] abbreviates: dose: 100.0 mg/kg/injection, schedule: Q01DX009 (ip), vehicle: saline with Tween-80.
The mark [6] stands for this setting: dose: 200.0 mg/kg/injection, schedule: Q01DX009 (ip), vehicle: saline with Tween-80.
The mark [7] stands for this setting: dose: 400.0 mg/kg/injection, schedule: Q01DX009 (ip), vehicle: saline with Tween-80.
[8] abbreviates: dose: 25.0 mg/kg/injection, schedule: Q01DX009 (ip), vehicle: saline with Tween-80.
[9] abbreviates: dose: 50.0 mg/kg/injection, schedule: Q01DX009 (ip), vehicle: saline with Tween-80.
The mark [10] stands for this setting: dose: 100.0 mg/kg/injection, schedule: Q04DX003 (ip), vehicle: saline with Tween-80.
The mark [11] stands for this setting: dose: 100.0 mg/kg/injection, schedule: Q01DX009 (ip), vehicle: Klucel (hydroxypropylcellulose) (HPC).
The mark [12] stands for this setting: dose: 200.0 mg/kg/injection, schedule: Q01DX009 (ip), vehicle: Klucel (hydroxypropylcellulose) (HPC).

For the compound `CC1(C)N=C(N)N=C(N)N1c1ccc(Cl)cc1Cl`, the T/C was 108 % of control under setting [1], 111 % of control under setting [2] and 123 % of control under setting [3].

For the compound `COc1cc(C2c3cc4c(cc3CC3COC(=O)C32)OCO4)cc(OC)c1O` (configuration not stated), the T/C was 98 % of control (dose: 0.5 mg/kg/injection, schedule: Q01DX009 (ip), vehicle: saline with Tween-80); 104 % of control (dose: 1.0 mg/kg/injection, schedule: Q01DX009 (ip), vehicle: saline with Tween-80); 123 % of control (dose: 2.0 mg/kg/injection, schedule: Q01DX009 (ip), vehicle: saline with Tween-80); 106 % of control (dose: 4.0 mg/kg/injection, schedule: Q01DX009 (ip), vehicle: saline with Tween-80).

Turning to `COc1cc2c(cc1OC)C(C#N)C2` (configuration not stated), the T/C reads like this: under setting [4], 105 % of control; under setting [1], 97 % of control and 102 % of control; under setting [2], 111 % of control.

`c1ccc([P+](c2ccccc2)(c2ccccc2)c2ccccc2)cc1`: the T/C is 102 % of control (dose: 0.13 mg/kg/injection, schedule: Q01DX009 (ip), vehicle: saline); 102 % of control (dose: 0.2 mg/kg/injection, schedule: Q01DX009 (ip), vehicle: saline); 102 % of control (dose: 0.3 mg/kg/injection, schedule: Q01DX009 (ip), vehicle: saline); 113 % of control (dose: 0.44 mg/kg/injection, schedule: Q01DX009 (ip), vehicle: saline); 100 % of control (dose: 0.63 mg/kg/injection, schedule: Q04DX003 (ip), vehicle: saline); 110 % of control (dose: 0.66 mg/kg/injection, schedule: Q01DX009 (ip), vehicle: saline). For the same compound, the T/C was 113 % of control (dose: 1.0 mg/kg/injection, schedule: Q01DX009 (ip), vehicle: saline); 97 % of control (dose: 1.25 mg/kg/injection, schedule: Q01DX009 (ip), vehicle: saline with Tween-80); 100 % of control (dose: 1.25 mg/kg/injection, schedule: Q04DX003 (ip), vehicle: saline); 113 % of control (dose: 1.5 mg/kg/injection, schedule: Q01DX009 (ip), vehicle: saline); 104 % of control (dose: 2.5 mg/kg/injection, schedule: Q01DX009 (ip), vehicle: saline with Tween-80); 102 % of control (dose: 2.5 mg/kg/injection, schedule: Q04DX003 (ip), vehicle: saline). Also, the T/C (dose: 5.0 mg/kg/injection, schedule: Q01DX009 (ip), vehicle: saline with Tween-80) is 111 % of control and the T/C (dose: 5.0 mg/kg/injection, schedule: Q04DX003 (ip), vehicle: saline) is 89 % of control.

Take `CC1(CO)C(O)CCC2(C)C1CCC1CC3CC12CCC3(O)CO` (configuration not stated): the T/C runs as follows: (dose: 0.78 mg/kg/injection, schedule: Q03HX020 (oral), vehicle: Klucel (hydroxypropylcellulose) (HPC)) 97 % of control; (dose: 1.56 mg/kg/injection, schedule: Q03HX020 (oral), vehicle: Klucel (hydroxypropylcellulose) (HPC)) 107 % of control; (dose: 3.12 mg/kg/injection, schedule: Q03HX020 (ip), vehicle: Klucel (hydroxypropylcellulose) (HPC)) 89 % of control; (dose: 3.12 mg/kg/injection, schedule: Q03HX020 (oral), vehicle: Klucel (hydroxypropylcellulose) (HPC)) 99 % of control; (dose: 6.25 mg/kg/injection, schedule: Q03HX020 (ip), vehicle: Klucel (hydroxypropylcellulose) (HPC)) 108 % of control; (dose: 6.25 mg/kg/injection, schedule: Q03HX020 (oral), vehicle: Klucel (hydroxypropylcellulose) (HPC)) 102 % of control. Besides, the T/C (dose: 12.5 mg/kg/injection, schedule: Q03HX020 (ip), vehicle: Klucel (hydroxypropylcellulose) (HPC)) was 118 % of control; the T/C (dose: 12.5 mg/kg/injection, schedule: Q03HX020 (oral), vehicle: Klucel (hydroxypropylcellulose) (HPC)) was 99 % of control; the T/C (dose: 25.0 mg/kg/injection, schedule: Q03HX020 (ip), vehicle: Klucel (hydroxypropylcellulose) (HPC)) is 115 % of control; the T/C (dose: 25.0 mg/kg/injection, schedule: Q03HX020 (oral), vehicle: Klucel (hydroxypropylcellulose) (HPC)) is 98 % of control; the T/C (dose: 25.0 mg/kg/injection, schedule: Q04DX003 (ip), vehicle: Klucel (hydroxypropylcellulose) (HPC)) is 100 % of control; the T/C (dose: 50.0 mg/kg/injection, schedule: Q03HX020 (ip), vehicle: Klucel (hydroxypropylcellulose) (HPC)) is 176 % of control. Further, the T/C (dose: 50.0 mg/kg/injection, schedule: Q03HX020 (oral), vehicle: Klucel (hydroxypropylcellulose) (HPC)) is 104 % of control; the T/C (dose: 50.0 mg/kg/injection, schedule: Q04DX003 (ip), vehicle: Klucel (hydroxypropylcellulose) (HPC)) was 105 % of control; the T/C (dose: 100.0 mg/kg/injection, schedule: Q03HX020 (oral), vehicle: Klucel (hydroxypropylcellulose) (HPC)) is 117 % of control; the T/C (dose: 100.0 mg/kg/injection, schedule: Q04DX003 (ip), vehicle: Klucel (hydroxypropylcellulose) (HPC)) is 117 % of control; the T/C (dose: 400.0 mg/kg/injection, schedule: Q04DX003 (ip), vehicle: Klucel (hydroxypropylcellulose) (HPC)) is 163 % of control.

For the compound `CN(C)N=Nc1ccccc1C(=O)NC#N`, the T/C reads like this: (dose: 18.75 mg/kg/injection, schedule: Q01DX009 (ip), vehicle: Klucel (hydroxypropylcellulose) (HPC)) 95 % of control; (dose: 37.5 mg/kg/injection, schedule: Q01DX009 (ip), vehicle: Klucel (hydroxypropylcellulose) (HPC)) 105 % of control.

Consider `CCC1(CC)CCC(Br)C(Br)C1` (configuration not stated), for which the T/C by setting is: under setting [5], 95 % of control; under setting [6], 105 % of control; under setting [7], 102 % of control.

For `CCCN(C)N=Nc1ccccc1C(=O)O`, the T/C (dose: 1.56 mg/kg/injection, schedule: Q01DX009 (ip), vehicle: saline with Tween-80) is 100 % of control; the T/C (dose: 3.12 mg/kg/injection, schedule: Q01DX009 (ip), vehicle: saline with Tween-80) was 103 % of control; the T/C (dose: 3.13 mg/kg/injection, schedule: Q01DX009 (ip), vehicle: saline with Tween-80) was 111 % of control; the T/C under setting [4] was 116 % of control; the T/C (dose: 6.25 mg/kg/injection, schedule: Q01DX009 (ip), vehicle: saline with Tween-80) is 101 % of control and 102 % of control; the T/C under setting [1] is 110 % of control. For the same compound, the T/C (dose: 12.5 mg/kg/injection, schedule: Q01DX009 (ip), vehicle: saline with Tween-80) was 98 % of control and 102 % of control and 105 % of control; the T/C under setting [2] is 104 % of control; the T/C under setting [8] was 102 % of control and 107 % of control and 115 % of control; the T/C under setting [3] is 107 % of control; the T/C under setting [9] is 100 % of control.

For the compound `CC(C)CC(NC(=O)OCc1ccccc1)C(=O)O` (configuration not stated), the T/C under setting [10] was 102 % of control, the T/C under setting [6] is 106 % of control and the T/C under setting [7] was 121 % of control.

With `CCCCCCCCC(O)CCCCC` (configuration not stated), the T/C reads like this: under setting [11], 100 % of control; under setting [12], 94 % of control; (dose: 400.0 mg/kg/injection, schedule: Q01DX009 (ip), vehicle: Klucel (hydroxypropylcellulose) (HPC)) 98 % of control.

For `CC(=O)OC1C2CCC(C2)C1C` (configuration not stated), the T/C by setting is: under setting [10], 105 % of control; (dose: 200.0 mg/kg/injection, schedule: Q04DX003 (ip), vehicle: saline with Tween-80) 100 % of control; (dose: 400.0 mg/kg/injection, schedule: Q04DX003 (ip), vehicle: saline with Tween-80) 97 % of control.

As for `O=C(O)CNc1ccccc1C(=O)O`, the T/C is, setting by setting: under setting [3], 108 % of control; under setting [11], 94 % of control; under setting [12], 91 % of control.

`CC1(C)COC(c2ccccc2)=N1`: the T/C by setting is: (dose: 100.0 mg/kg/injection, schedule: Q01DX009 (ip), vehicle: saline) 123 % of control; (dose: 200.0 mg/kg/injection, schedule: Q01DX009 (ip), vehicle: saline) 115 % of control.

`CC(C)CC(Br)C(=O)NCC(=O)NC(Cc1ccccc1)C(=O)O` (configuration not stated): the T/C by setting is: under setting [9], 97 % of control; under setting [5], 95 % of control; under setting [6], 97 % of control.

With `CCOc1ccc(NC(=O)OCCN2CCN(CCc3ccccc3)C(C)C2)cc1` (configuration not stated), the T/C runs as follows: under setting [8], 108 % of control; under setting [9], 113 % of control; under setting [5], 101 % of control.
